Test systems include SR leukemia; OVCAR-3 ovarian; SNB-75 CNS; HCT-15 colon; 786-0 renal; A549 NSCLC; BT-549 breast; SK-MEL-5 melanoma; T-47D breast; CCRF-CEM leukemia.
Holding throughout (assay): growth of human tumour cells (NCI), 48 h

Each structure is given as a SMILES string.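 48-hour exposure; five concentrations; linearly interpolated endpoints. At the GI50, growth is halved. At the TGI there is no net growth.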

On to `COc1cc(NC(C)CCCN)c2nccc(C)c2c1` (stereo unspecified), for which the TGI was 53.1 µM in the experiment with SR leukemia; 67.9 µM with OVCAR-3 ovarian; 37.1 µM with SNB-75 CNS; 49.7 µM in the experiment with HCT-15 colon; 38 µM with 786-0 renal; above 100 µM in the experiment with A549 NSCLC. Besides, the TGI with BT-549 breast stood at 56.7 µM; in the experiment on SK-MEL-5 melanoma, 82.8 µM.

As to `O=C(O)C1C(Br)(c2ccccc2)C1(Br)c1ccccc1` (stereo unspecified), the TGI with SR leukemia is above 100 µM; in the experiment on OVCAR-3 ovarian, above 100 µM; in the experiment on SNB-75 CNS it was 93.9 µM; in the experiment with HCT-15 colon, 47.5 µM; with T-47D breast it was above 100 µM; with 786-0 renal it was above 100 µM. The TGI with A549 NSCLC is above 100 µM; with BT-549 breast it was 49.5 µM; in the experiment on SK-MEL-5 melanoma, 88.8 µM.

For `CN(CCC#N)c1ccc(/C=C(\C#N)c2ccc(Br)cc2)cc1`, the results for the GI50 in the experiment with HCT-15 colon, in the experiment with 786-0 renal and in the experiment on BT-549 breast were 2.9 µM, above 100 µM and above 100 µM, respectively. In addition, the TGI in the experiment with HCT-15 colon, in the experiment with 786-0 renal and with BT-549 breast was above 100 µM each time.

`ClCc1cccc(Cn2cnc3nc(Cl)nc(Cl)c32)c1`: the GI50 was 0.233 µM with SR leukemia; 1.53 µM in the experiment with OVCAR-3 ovarian; 0.31 µM in the experiment on CCRF-CEM leukemia; 0.912 µM in the experiment on SNB-75 CNS; 0.955 µM with HCT-15 colon; 0.697 µM in the experiment with 786-0 renal. The results for the GI50 in the experiment on A549 NSCLC, in the experiment on BT-549 breast and in the experiment on SK-MEL-5 melanoma were 6.46 µM, 0.487 µM and 0.614 µM, respectively. Further, the TGI with SR leukemia turned out to be 2.6 µM; in the experiment on OVCAR-3 ovarian, 2.86 µM; in the experiment with CCRF-CEM leukemia, 0.973 µM; in the experiment on SNB-75 CNS it was 2.2 µM; in the experiment on HCT-15 colon, 2.13 µM; with 786-0 renal, 1.76 µM. The TGI in the experiment with A549 NSCLC stood at 19.8 µM; in the experiment on BT-549 breast, 1.75 µM; in the experiment on SK-MEL-5 melanoma it was 1.94 µM.

`O=C1CSC(c2ccc(Cl)cc2Cl)N1c1ccc(F)cc1` (stereo unspecified): the GI50 was 19.6 µM with SR leukemia; 17.2 µM in the experiment on OVCAR-3 ovarian; 2.19 µM with CCRF-CEM leukemia; 17.2 µM with HCT-15 colon; 17.8 µM in the experiment on 786-0 renal; 19.1 µM in the experiment with A549 NSCLC. The GI50 was 18 µM in the experiment on BT-549 breast and 24.6 µM in the experiment with SK-MEL-5 melanoma. The TGI is 40.9 µM with SR leukemia; 32.1 µM with OVCAR-3 ovarian; 19 µM in the experiment with CCRF-CEM leukemia; 31 µM with HCT-15 colon; 31.7 µM in the experiment with 786-0 renal; 36.1 µM in the experiment on A549 NSCLC. In addition, the TGI with BT-549 breast was 32.3 µM; in the experiment with SK-MEL-5 melanoma, 39.8 µM.

Regarding `COc1c(CCl)cc(-c2cc(=O)c3ccccc3s2)cc1CCl`, the TGI in the experiment on SR leukemia is above 100 µM; with OVCAR-3 ovarian, above 100 µM; in the experiment on SNB-75 CNS it was 24.9 µM; in the experiment on HCT-15 colon it was above 100 µM; in the experiment on T-47D breast it was 4.03 µM; in the experiment with 786-0 renal, 1.74 µM. Besides, the TGI in the experiment with A549 NSCLC, in the experiment on BT-549 breast and in the experiment with SK-MEL-5 melanoma was above 100 µM in each case.

On to `COc1cccc2c(=O)c3c(sc12)c(N1CCNCC1)nc1ccccc13`, for which the GI50 in the experiment with SR leukemia is 0.622 µM; in the experiment with OVCAR-3 ovarian, 1.67 µM; in the experiment with SNB-75 CNS, 1.56 µM; in the experiment with HCT-15 colon, 1.53 µM; with T-47D breast, 1.9 µM; in the experiment on 786-0 renal, 1.73 µM. For the same molecule, the GI50 with A549 NSCLC was 1.81 µM; with BT-549 breast, 13.3 µM; with SK-MEL-5 melanoma, 1.7 µM. The TGI with SR leukemia was above 100 µM; in the experiment on OVCAR-3 ovarian it was 3.12 µM; in the experiment with SNB-75 CNS it was 2.98 µM; with HCT-15 colon it was 3.09 µM; with T-47D breast it was 4.57 µM; in the experiment with 786-0 renal, 3.39 µM. The TGI in the experiment with A549 NSCLC was determined as 4.26 µM; with BT-549 breast it was 27.5 µM; with SK-MEL-5 melanoma, 3.09 µM.

`C1CCC([PH+](C2CCCCC2)C2CCCCC2[PH+](C2CCCCC2)C2CCCCC2)CC1.O=C(C1[CH-]CCCC1)C1CCCC[N-]1.[Au]` (stereo unspecified): the GI50 with SR leukemia was 0.329 µM; in the experiment on OVCAR-3 ovarian it was 0.272 µM; with SNB-75 CNS, 0.179 µM; in the experiment on 786-0 renal, 0.413 µM; with BT-549 breast it was 0.261 µM; in the experiment on SK-MEL-5 melanoma it was 0.252 µM. Moreover, the TGI in the experiment with SR leukemia is above 100 µM; in the experiment on OVCAR-3 ovarian it was 1.19 µM; in the experiment with SNB-75 CNS it was 1.05 µM; in the experiment on 786-0 renal, 1.85 µM; in the experiment on BT-549 breast, 1.5 µM; in the experiment on SK-MEL-5 melanoma, 0.661 µM.

`CC(=O)C(=CN1CCN(C(=O)c2ccco2)C1=S)C(C)=O`: the GI50 in the experiment on SR leukemia was 2.26 µM; in the experiment with OVCAR-3 ovarian, 11.4 µM; in the experiment on SNB-75 CNS it was 9.02 µM; in the experiment on HCT-15 colon, 2.16 µM; in the experiment with T-47D breast it was 3.65 µM; with 786-0 renal it was 5.34 µM. The GI50 in the experiment with A549 NSCLC is 11.2 µM; in the experiment on BT-549 breast, 14 µM; with SK-MEL-5 melanoma, 16.6 µM. For the same molecule, the TGI with SR leukemia was above 100 µM; with OVCAR-3 ovarian, 35.9 µM; in the experiment on SNB-75 CNS it was 71.4 µM; with HCT-15 colon it was 5.55 µM; in the experiment on T-47D breast, 12.6 µM; with 786-0 renal, 18.8 µM. Also, the values for the TGI in the experiment with A549 NSCLC, in the experiment with BT-549 breast and with SK-MEL-5 melanoma were 32.7 µM, 30.1 µM and 31.5 µM, respectively.

As for `COc1ccc(/C=C/c2cc(OC)cc(=O)o2)cc1`, the TGI is above 100 µM in the experiment with SR leukemia; above 100 µM with OVCAR-3 ovarian; above 100 µM with CCRF-CEM leukemia; 44.6 µM with SNB-75 CNS; above 100 µM with HCT-15 colon; above 100 µM with T-47D breast. The TGI in the experiment with 786-0 renal, with A549 NSCLC and in the experiment on SK-MEL-5 melanoma was above 100 µM throughout.

For the molecule `O=C1Nc2ccc(F)cc2/C1=C/c1ccc[nH]1`, the GI50 in the experiment with SR leukemia is 7.84 µM; in the experiment on OVCAR-3 ovarian it was above 18.4 µM; in the experiment with SNB-75 CNS it was above 25 µM; with HCT-15 colon it was 11.5 µM; with T-47D breast, 1.03 µM; in the experiment on 786-0 renal, above 25 µM. In addition, the figures for the GI50 in the experiment with A549 NSCLC, in the experiment on BT-549 breast and with SK-MEL-5 melanoma were above 25 µM, above 18.8 µM and above 25 µM, respectively. Further, the TGI in the experiment with SR leukemia was above 25 µM; with OVCAR-3 ovarian, above 25 µM; with SNB-75 CNS, above 25 µM; in the experiment with HCT-15 colon, above 25 µM; in the experiment with T-47D breast, above 14.2 µM; in the experiment on 786-0 renal, above 25 µM. Also, the TGI in the experiment with A549 NSCLC, in the experiment with BT-549 breast and with SK-MEL-5 melanoma was above 25 µM in each case.

For the origin of these results see PubChem BioAssay (NCI).
